Assay [1] concerns the target T1, Dihydrofolate reductase (Rattus norvegicus, UniProt Q920D2).
T1 sequence (Q920D2 whole entry): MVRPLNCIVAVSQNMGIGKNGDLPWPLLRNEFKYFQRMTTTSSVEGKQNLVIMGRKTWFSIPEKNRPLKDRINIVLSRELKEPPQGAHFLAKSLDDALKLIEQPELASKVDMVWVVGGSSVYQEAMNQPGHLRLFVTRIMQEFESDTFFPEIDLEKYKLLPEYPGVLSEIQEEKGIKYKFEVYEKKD
Description: Inhibitory activity against dihydrofolate reductase in rat liver. Conditions: read-out: I50.

For assay [2], the target named is Dihydrofolate reductase (Neisseria gonorrhoeae, UniProt P04174). In words: Inhibitory activity against Dihydrofolate reductase in Neisseria gonorrhoeae. Conditions: read-out: I50.
Sequence of Dihydrofolate reductase (Neisseria gonorrhoeae, UniProt P04174) (P04174 whole entry): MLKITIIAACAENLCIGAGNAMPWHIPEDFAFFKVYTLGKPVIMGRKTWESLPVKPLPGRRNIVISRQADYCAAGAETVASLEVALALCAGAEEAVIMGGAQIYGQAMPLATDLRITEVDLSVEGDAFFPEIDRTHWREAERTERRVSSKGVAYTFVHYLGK
Assay [3] has as its system Bordetella bronchiseptica. Description: Comparative in vitro antibacterial activity with trimethoprim against Bordetella bronchiseptica CN385. The class given is functional.
Assay [4] concerns Citrobacter freundii. Description: Comparative in vitro antibacterial activity with trimethoprim against Citrobacter freundii 2200/77. It is filed as functional.
Assay [5] concerns Escherichia coli. Description: Comparative in vitro antibacterial activity with trimethoprim against Escherichia coli CN314. The class given is functional.
Assay [6] has as its system Klebsiella aerogenes. Description: Comparative in vitro antibacterial activity with trimethoprim against Enterobacter aerogenes 2200/86. It is filed as functional.
The subject of assay [7] is Mycolicibacterium smegmatis. In words: Comparative in vitro antibacterial activity with trimethoprim against Mycobacterium smegmatis S 3254. The class given is functional.
For assay [8], the system named is Proteus mirabilis. Description: Comparative in vitro antibacterial activity with trimethoprim against Proteus mirabilis S2409. It is filed as functional.
In assay [9] the test system is Proteus vulgaris. In words: Comparative in vitro antibacterial activity with trimethoprim against Proteus vulgaris CN329. It is filed as functional.
A short description of assay [10]: Comparative in vitro antibacterial activity with trimethoprim against Salmonella typhi CN512. The class given is functional, salmonella typhosa.
Assay [11] concerns Shigella flexneri. In words: Comparative in vitro antibacterial activity with trimethoprim against Shigella flexneri CN6007. The class given is functional.
Assay [12] relates to Serratia marcescens. Description: Comparative in vitro antibacterial activity with trimethoprim against Serratia marcescens CN2398. The class given is functional.
The test system of assay [13] is Salmonella typhimurium. In words: Comparative in vitro antibacterial activity with trimethoprim against Salmonella Typhimurium S 8587. The class given is functional, Salmonella enterica subsp. enterica serovar Typhimurium. Conditions: Salmonella enterica.
For assay [14], the system named is Staphylococcus aureus. In words: Comparative in vitro antibacterial activity with trimethoprim against Staphylococcus aureus CN491. It is filed as functional.
Assay [15] deals with Enterococcus faecalis. Description: Comparative in vitro antibacterial activity with trimethoprim against Streptococcus faecalis CN478. The class given is functional.
The test system of assay [16] is Streptococcus agalactiae. In words: Comparative in vitro antibacterial activity with trimethoprim against Streptococcus agalactiae CN1143. The class given is functional.
The subject of assay [17] is Vibrio cholerae. In words: Comparative in vitro antibacterial activity with trimethoprim against Vibrio cholerae ATCC 14035. The class given is functional.
Assay [18] relates to Pasteurella multocida. In words: Comparative in vitro antibacterial activity with trimethoprim against Pasteurella multocida ATCC 6587. It is filed as functional.
Assay [19] concerns Klebsiella pneumoniae. Description: Comparative in vitro antibacterial activity with trimethoprim against Klebsiella pneumoniae CN3632. The class given is functional.
The subject of assay [20] is Streptococcus pyogenes. In words: Comparative in vitro antibacterial activity of compound with trimethoprim against Streptococcus pyogenes CN10. It is filed as functional.

Results on six compounds are retold here after ChEMBL document CHEMBL1124638, “2,4-Diamino-5-benzylpyrimidines and analogues as antibacterial agents. 10. 2,4-Diamino-5-(6-quinolylmethyl)- and -[(tetrahydro-6-quinolyl)methyl]pyrimidine derivatives. Further specificity studies” (J Med Chem, 1989).

Values after ≈ are worked out from the molar mass of the structure shown.

Consider `CCOC(=O)C1CNc2c(OC)cc(Cc3cnc(N)nc3N)c(OC)c2C1` (stereo unspecified), for which the values for the IC50 in assay [1] and in assay [2] were 142 µM and 1900 nM, respectively.

Turning to `CCN1CCC(C)c2cc(Cc3cnc(N)nc3N)ccc21` (stereo unspecified), the minimum inhibitory concentration (MIC) is 100 µg/mL (≈ 336 µM) in assay [3]; 100 µg/mL (≈ 336 µM) in assay [4]; 100 µg/mL (≈ 336 µM) in assay [5]; 100 µg/mL (≈ 336 µM) in assay [6]; 10 µg/mL (≈ 33.6 µM) in [7]; 30 µg/mL (≈ 101 µM) in assay [8]. Also, the minimum inhibitory concentration (MIC) was 100 µg/mL (≈ 336 µM) in [9]; 100 µg/mL (≈ 336 µM) in [10]; 100 µg/mL (≈ 336 µM) in assay [11]; over 30 µg/mL in [12]; 100 µg/mL (≈ 336 µM) in assay [13]; 3 µg/mL (≈ 10.1 µM) in assay [14]. For the same compound, the MIC in assay [15] was determined as 3 µg/mL (≈ 10.1 µM); in assay [16], 3 µg/mL (≈ 10.1 µM); in [17] it was 10 µg/mL (≈ 33.6 µM); in assay [18], 30 µg/mL (≈ 101 µM); in assay [19], 100 µg/mL (≈ 336 µM). The IC50 in [1] came out at 38 µM; in assay [2] it was 690 nM.

On to `COCCN1CCC(C)c2cc(Cc3cnc(N)nc3N)cc(OC)c21` (stereo unspecified), for which the MIC was 100 µg/mL (≈ 280 µM) in assay [3]; 100 µg/mL (≈ 280 µM) in assay [4]; 30 µg/mL (≈ 83.9 µM) in assay [5]; 30 µg/mL (≈ 83.9 µM) in [6]; 10 µg/mL (≈ 28 µM) in assay [7]; over 100 µg/mL in assay [9]. In addition, the minimum inhibitory concentration (MIC) is 30 µg/mL (≈ 83.9 µM) in assay [10]; 100 µg/mL (≈ 280 µM) in [11]; over 10 µg/mL in [12]; 100 µg/mL (≈ 280 µM) in [13]; 1 µg/mL (≈ 2.8 µM) in assay [20]; 3 µg/mL (≈ 8.39 µM) in assay [14]. Besides, the MIC in assay [15] was 0.3 µg/mL (≈ 0.839 µM); in assay [16] it was 3 µg/mL (≈ 8.39 µM); in [17], 100 µg/mL (≈ 280 µM); in [18] it was 30 µg/mL (≈ 83.9 µM); in [19], 30 µg/mL (≈ 83.9 µM). The values for the IC50 in [1] and in assay [2] were 260 µM and 1400 nM, respectively.

Take `Cc1ccnc2c([N+](=O)[O-])cc(Cc3cnc(N)nc3N)cc12`: the minimum inhibitory concentration (MIC) in assay [3] was 3 µg/mL (≈ 9.67 µM); in [4] it was 10 µg/mL (≈ 32.2 µM); in assay [5], 10 µg/mL (≈ 32.2 µM); in assay [6], 10 µg/mL (≈ 32.2 µM); in assay [7] it was 1 µg/mL (≈ 3.22 µM); in assay [8] it was 10 µg/mL (≈ 32.2 µM). In addition, the minimal inhibitory concentration (MIC) stood at 10 µg/mL (≈ 32.2 µM) in [9]; 3 µg/mL (≈ 9.67 µM) in assay [10]; 10 µg/mL (≈ 32.2 µM) in assay [11]; 30 µg/mL (≈ 96.7 µM) in assay [12]; 10 µg/mL (≈ 32.2 µM) in assay [13]; 1 µg/mL (≈ 3.22 µM) in assay [20]. For the same compound, the MIC worked out at 1 µg/mL (≈ 3.22 µM) in assay [14]; 3 µg/mL (≈ 9.67 µM) in assay [15]; 1 µg/mL (≈ 3.22 µM) in assay [16]; 1 µg/mL (≈ 3.22 µM) in [17]; 3 µg/mL (≈ 9.67 µM) in [18]; 10 µg/mL (≈ 32.2 µM) in [19]. The IC50 in assay [1] worked out at 5.7 µM.

Regarding `COc1cc(Cc2cnc(N)nc2N)cc2c1N(C)CCC2C` (stereo unspecified), the minimal inhibitory concentration (MIC) in assay [3], in assay [4], in assay [5], in [6], in [7] and in assay [8] was 3 µg/mL (≈ 9.57 µM) throughout. The minimum inhibitory concentration (MIC) in [9] turned out to be 10 µg/mL (≈ 31.9 µM); in assay [10], 3 µg/mL (≈ 9.57 µM); in assay [11], 10 µg/mL (≈ 31.9 µM); in assay [12] it was 3 µg/mL (≈ 9.57 µM); in assay [13] it was 10 µg/mL (≈ 31.9 µM); in assay [14] it was 1 µg/mL (≈ 3.19 µM). The MIC turned out to be 0.3 µg/mL (≈ 0.957 µM) in assay [15]; 0.3 µg/mL (≈ 0.957 µM) in [16]; 3 µg/mL (≈ 9.57 µM) in assay [17]; 3 µg/mL (≈ 9.57 µM) in assay [18]; 3 µg/mL (≈ 9.57 µM) in assay [19]. In addition, in assay [2], the IC50 is 890 nM.

For the compound `CN1CCCc2cc(Cc3cnc(N)nc3N)ccc21`, the minimum inhibitory concentration (MIC) in [3] was determined as 30 µg/mL (≈ 111 µM); in [4], 30 µg/mL (≈ 111 µM); in assay [5], 30 µg/mL (≈ 111 µM); in assay [6], 30 µg/mL (≈ 111 µM); in assay [7], 10 µg/mL (≈ 37.1 µM); in assay [8], 10 µg/mL (≈ 37.1 µM). Moreover, the MIC in [9] turned out to be 30 µg/mL (≈ 111 µM); in assay [10], 30 µg/mL (≈ 111 µM); in assay [11] it was 10 µg/mL (≈ 37.1 µM); in assay [12], 30 µg/mL (≈ 111 µM); in [13], 30 µg/mL (≈ 111 µM); in assay [14] it was 10 µg/mL (≈ 37.1 µM). For the same compound, the MIC in assay [15] is 3 µg/mL (≈ 11.1 µM); in [16], 10 µg/mL (≈ 37.1 µM); in [17], 10 µg/mL (≈ 37.1 µM); in assay [18], 30 µg/mL (≈ 111 µM); in assay [19], 30 µg/mL (≈ 111 µM). Besides, the IC50 was 89 µM in [1] and 950 nM in assay [2].
